Measured values as given in ChEMBL document CHEMBL3046126, “Synthesis and Herbicidal Activity of New Oxazolidinedione Derivatives” (J Pestic Sci, 1999).

Columns and labels:
Cyperus difformis [1] = assay: Pre-emergence herbicidal activity against Cyperus difformis assessed as phytotoxic weed control visual ratings at 25 g ai/ha measured after 14 days post treatment under flooded conditions; format: functional
Amaranthus viridis = assay: Pre-emergence herbicidal activity against Amaranthus viridis assessed as phytotoxic weed control visual ratings at 500 g ai/ha measured after 14 days post treatment under upland field conditions; format: functional
Echinochloa oryzicola [2] = assay: Pre-emergence herbicidal activity against Echinochloa oryzicola assessed as phytotoxic weed control visual ratings at 25 g ai/ha measured after 14 days post treatment under flooded conditions; format: functional
Lindernia procumbens [3] = assay: Pre-emergence herbicidal activity against Lindernia procumbens assessed as phytotoxic weed control visual ratings at 25 g ai/ha measured after 14 days post treatment under flooded conditions; format: functional
Oryza sativa [4] = assay: Pre-emergence phytotoxicity against Oryza sativa cv. Koshihikari (rice) assessed as phytotoxic crop injury visual ratings at 25 g ai/ha measured after 14 days post treatment under flooded conditions; format: organism-based; conditions: in vivo, other, 336 h
Rotala indica [5] = assay: Pre-emergence herbicidal activity against Rotala indica assessed as phytotoxic weed control visual ratings at 25 g ai/ha measured after 14 days post treatment under flooded conditions; format: functional
Chenopodium album = assay: Pre-emergence herbicidal activity against Chenopodium album assessed as phytotoxic weed control visual ratings at 500 g ai/ha measured after 14 days post treatment under upland field conditions; format: functional
Zea mays = assay: Pre-emergence phytotoxicity against Zea mays (maize) assessed as phytotoxic crop injury visual ratings at 500 g ai/ha measured after 14 days post treatment under upland field conditions; format: organism-based; conditions: in vivo, other, 336 h
Digitaria ciliaris = assay: Pre-emergence herbicidal activity against Digitaria ciliaris assessed as phytotoxic weed control visual ratings at 500 g ai/ha measured after 14 days post treatment under upland field conditions; format: functional
[6] = test system: Schoenoplectiella juncoides; assay: Pre-emergence herbicidal activity against Schoenoplectiella juncoides assessed as phytotoxic weed control visual ratings at 25 g ai/ha measured after 14 days post treatment under flooded conditions; format: functional
Elatine triandra [7] = assay: Pre-emergence herbicidal activity against Elatine triandra assessed as phytotoxic weed control visual ratings at 25 g ai/ha measured after 14 days post treatment under flooded conditions; format: functional
Pontederia vaginalis [8] = assay: Pre-emergence herbicidal activity against Monochoria vaginalis assessed as phytotoxic weed control visual ratings at 25 g ai/ha measured after 14 days post treatment under flooded conditions; format: functional
Echinochloa crus-galli = assay: Pre-emergence herbicidal activity against Echinochloa crus-galli (barnyard grass) assessed as phytotoxic weed control visual ratings at 500 g ai/ha measured after 14 days post treatment under upland field conditions; format: functional
Pontederia vaginalis [9] = assay: Pre-emergence herbicidal activity against Monochoria vaginalis assessed as phytotoxic weed control visual ratings at 1.25 kg ai/ha measured after 14 days post treatment under flooded conditions; format: functional
[10] = test system: Schoenoplectiella juncoides; assay: Pre-emergence herbicidal activity against Schoenoplectiella juncoides assessed as phytotoxic weed control visual ratings at 1.25 kg ai/ha measured after 14 days post treatment under flooded conditions; format: functional
Echinochloa oryzicola [11] = assay: Pre-emergence herbicidal activity against Echinochloa oryzicola assessed as phytotoxic weed control visual ratings at 1.25 kg ai/ha measured after 14 days post treatment under flooded conditions; format: functional
Oryza sativa [12] = assay: Pre-emergence phytotoxicity against Oryza sativa cv. Koshihikari (rice) assessed as phytotoxic crop injury visual ratings at 1.25 kg ai/ha measured after 14 days post treatment under flooded conditions; format: organism-based; conditions: in vivo, other, 336 h
Elatine triandra [13] = assay: Pre-emergence herbicidal activity against Elatine triandra assessed as phytotoxic weed control visual ratings at 1.25 kg ai/ha measured after 14 days post treatment under flooded conditions; format: functional
Rotala indica [14] = assay: Pre-emergence herbicidal activity against Rotala indica assessed as phytotoxic weed control visual ratings at 1.25 kg ai/ha measured after 14 days post treatment under flooded conditions; format: functional
Lindernia procumbens [15] = assay: Pre-emergence herbicidal activity against Lindernia procumbens assessed as phytotoxic weed control visual ratings at 1.25 kg ai/ha measured after 14 days post treatment under flooded conditions; format: functional
Cyperus difformis [16] = assay: Pre-emergence herbicidal activity against Cyperus difformis assessed as phytotoxic weed control visual ratings at 1.25 kg ai/ha measured after 14 days post treatment under flooded conditions; format: functional
Rotala indica [17] = assay: Pre-emergence herbicidal activity against Rotala indica assessed as phytotoxic weed control visual ratings at 2.5 kg ai/ha measured after 14 days post treatment under flooded conditions; format: functional
[18] = test system: Schoenoplectiella juncoides; assay: Pre-emergence herbicidal activity against Schoenoplectiella juncoides assessed as phytotoxic weed control visual ratings at 2.5 kg ai/ha measured after 14 days post treatment under flooded conditions; format: functional
Lindernia procumbens [19] = assay: Pre-emergence herbicidal activity against Lindernia procumbens assessed as phytotoxic weed control visual ratings at 2.5 kg ai/ha measured after 14 days post treatment under flooded conditions; format: functional
Pontederia vaginalis [20] = assay: Pre-emergence herbicidal activity against Monochoria vaginalis assessed as phytotoxic weed control visual ratings at 2.5 kg ai/ha measured after 14 days post treatment under flooded conditions; format: functional
Cyperus difformis [21] = assay: Pre-emergence herbicidal activity against Cyperus difformis assessed as phytotoxic weed control visual ratings at 2.5 kg ai/ha measured after 14 days post treatment under flooded conditions; format: functional
Oryza sativa [22] = assay: Pre-emergence phytotoxicity against Oryza sativa cv. Koshihikari (rice) assessed as phytotoxic crop injury visual ratings at 2.5 kg ai/ha measured after 14 days post treatment under flooded conditions; format: organism-based; conditions: in vivo, other, 336 h
Echinochloa oryzicola [23] = assay: Pre-emergence herbicidal activity against Echinochloa oryzicola assessed as phytotoxic weed control visual ratings at 2.5 kg ai/ha measured after 14 days post treatment under flooded conditions; format: functional
Elatine triandra [24] = assay: Pre-emergence herbicidal activity against Elatine triandra assessed as phytotoxic weed control visual ratings at 2.5 kg ai/ha measured after 14 days post treatment under flooded conditions; format: functional
[25] = Selectivity index, ratio of ED10 for Oryza sativa to ED90 for Echinochloa oryzicola by post-emergence exposure method
[26] = Selectivity index, ratio of ED10 for Oryza sativa to ED90 for Echinochloa oryzicola by pre-emergence exposure method
Oryza sativa [27] = assay: Post-emergence phytotoxicity against Oryza sativa cv. Koshihikari (rice) assessed as phytotoxic crop injury visual ratings measured after 14 days post treatment; format: organism-based; conditions: in vivo, 336 h
Oryza sativa [28] = assay: Pre-emergence phytotoxicity against Oryza sativa cv. Koshihikari (rice) assessed as phytotoxic crop injury visual ratings measured after 14 days post treatment; format: organism-based; conditions: in vivo, 336 h

Row | Compound | Phytotoxicity (Oryza sativa [4]) | Phytotoxicity (Zea mays) | Phytotoxicity (Pontederia vaginalis [9]) | Phytotoxicity [10] | Phytotoxicity (Echinochloa oryzicola [11]) | Phytotoxicity (Oryza sativa [12]) | Phytotoxicity (Elatine triandra [13]) | Phytotoxicity (Rotala indica [14]) | Phytotoxicity (Lindernia procumbens [15]) | Phytotoxicity (Cyperus difformis [16]) | other results
1 | COc1cc(N2C(=O)OC(=C(C)C)C2=O)c(F)cc1Cl | 0% | 30% |  |  |  |  |  |  |  |  | Phytotoxicity (Cyperus difformis [1]): 100%; Phytotoxicity (Amaranthus viridis): 80%; Phytotoxicity (Echinochloa oryzicola [2]): 30%; Phytotoxicity (Lindernia procumbens [3]): 100%; Phytotoxicity (Rotala indica [5]): 100%; Phytotoxicity (Chenopodium album): 90%; Phytotoxicity (Digitaria ciliaris): 90%; Phytotoxicity [6]: 10%; Phytotoxicity (Elatine triandra [7]): 100%; Phytotoxicity (Pontederia vaginalis [8]): 80%; Phytotoxicity (Echinochloa crus-galli): 60%
2 | CCCC/C(C)=C1/OC(=O)N(c2ccc(Cl)cc2)C1=O |  |  | 100% | 100% | 40% | 10% | 100% | 100% | 100% | 100% | 
3 | CC/C(C)=C1/OC(=O)N(c2ccc(F)cc2)C1=O |  |  | 100% | 60% | 10% | 0% | 100% | 100% | 100% | 100% | 
4 | CCCCCC/C(C)=C1/OC(=O)N(c2ccc(Cl)cc2)C1=O |  |  | 50% | 10% | 10% | 0% | 4% | 4% | 4% | 80% | 
5 | C=C(C)C1(C)OC(=O)N(c2cc(Cl)cc(Cl)c2)C1=O (stereo not drawn) |  |  |  |  |  |  |  |  |  |  | Phytotoxicity (Rotala indica [17]): 60%; Phytotoxicity [18]: 20%; Phytotoxicity (Lindernia procumbens [19]): 60%; Phytotoxicity (Pontederia vaginalis [20]): 30%; Phytotoxicity (Cyperus difformis [21]): 30%; Phytotoxicity (Oryza sativa [22]): 0%; Phytotoxicity (Echinochloa oryzicola [23]): 80%; Phytotoxicity (Elatine triandra [24]): 60%
6 | CCC(CC)=C1OC(=O)N(c2ccc(Cl)cc2)C1=O |  |  | 90% | 30% | 10% | 0% | 100% | 100% | 100% | 100% | 
7 | O=C1OC(=C2CCCCC2)C(=O)N1c1ccc(Cl)cc1 |  |  | 10% | 80% | 10% | 0% | 100% | 100% | 100% | 100% | 
8 | C#CC(C)Oc1cc(N2C(=O)OC(=C(C)C)C2=O)c(F)cc1Cl (stereo not drawn) | 20% | 10% |  |  |  |  |  |  |  |  | Selectivity Index [25]: 2; Selectivity Index [26]: 4; ED10 (Oryza sativa [27]): 12.5 gAi/ha; ED10 (Oryza sativa [28]): 6.25 gAi/ha
9 | CC(C)=C1OC(=O)N(c2ccc(F)cc2)C1=O |  |  | 40% | 0% | 10% | 0% | 40% | 40% | 40% | 100% | 
10 | CCC(CC)Oc1cc(N2C(=O)OC(=C(C)C)C2=O)c(F)cc1Cl | 0% | 0% |  |  |  |  |  |  |  |  | Phytotoxicity (Cyperus difformis [1]): 100%; Phytotoxicity (Amaranthus viridis): 90%; Phytotoxicity (Echinochloa oryzicola [2]): 60%; Phytotoxicity (Lindernia procumbens [3]): 100%; Phytotoxicity (Rotala indica [5]): 100%; Phytotoxicity (Chenopodium album): 90%; Phytotoxicity (Digitaria ciliaris): 60%; Phytotoxicity [6]: 90%; Phytotoxicity (Elatine triandra [7]): 100%; Phytotoxicity (Pontederia vaginalis [8]): 100%; Phytotoxicity (Echinochloa crus-galli): 30%
